# Laboratory results from patent publication US6855730B2, “3-methylidenyl-2-indolinone modulators of protein kinase” (Sugen, Inc., priority 1998, dated 2005).
# Target: EGFR (Homo sapiens, UniProt P00533)
# Assay: EGFR assay (cellular ELISA, NIH 3T3/C7 cells)
# Type: cell-based
# Set-up: expressed in transfected cells; host or cells: NIH 3T3/C7
# Conditions: read-out: cell EGF IC50
# How it was run: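 NIH 3T3/C7 cells expressing human EGFR, serum-starved (0.5% serum) ~40 h, treated with compound (1:200 of 10 mg/ml DMSO stock, 1% DMSO) then stimulated 5 min with 25 nM EGF. Lysate EGFR captured by antibody and phosphotyrosine detected by anti-Ptyr ELISA (OD 410 nm); % inhibition after negative-control subtraction.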
# Chain of EGFR (P00533 25-1210): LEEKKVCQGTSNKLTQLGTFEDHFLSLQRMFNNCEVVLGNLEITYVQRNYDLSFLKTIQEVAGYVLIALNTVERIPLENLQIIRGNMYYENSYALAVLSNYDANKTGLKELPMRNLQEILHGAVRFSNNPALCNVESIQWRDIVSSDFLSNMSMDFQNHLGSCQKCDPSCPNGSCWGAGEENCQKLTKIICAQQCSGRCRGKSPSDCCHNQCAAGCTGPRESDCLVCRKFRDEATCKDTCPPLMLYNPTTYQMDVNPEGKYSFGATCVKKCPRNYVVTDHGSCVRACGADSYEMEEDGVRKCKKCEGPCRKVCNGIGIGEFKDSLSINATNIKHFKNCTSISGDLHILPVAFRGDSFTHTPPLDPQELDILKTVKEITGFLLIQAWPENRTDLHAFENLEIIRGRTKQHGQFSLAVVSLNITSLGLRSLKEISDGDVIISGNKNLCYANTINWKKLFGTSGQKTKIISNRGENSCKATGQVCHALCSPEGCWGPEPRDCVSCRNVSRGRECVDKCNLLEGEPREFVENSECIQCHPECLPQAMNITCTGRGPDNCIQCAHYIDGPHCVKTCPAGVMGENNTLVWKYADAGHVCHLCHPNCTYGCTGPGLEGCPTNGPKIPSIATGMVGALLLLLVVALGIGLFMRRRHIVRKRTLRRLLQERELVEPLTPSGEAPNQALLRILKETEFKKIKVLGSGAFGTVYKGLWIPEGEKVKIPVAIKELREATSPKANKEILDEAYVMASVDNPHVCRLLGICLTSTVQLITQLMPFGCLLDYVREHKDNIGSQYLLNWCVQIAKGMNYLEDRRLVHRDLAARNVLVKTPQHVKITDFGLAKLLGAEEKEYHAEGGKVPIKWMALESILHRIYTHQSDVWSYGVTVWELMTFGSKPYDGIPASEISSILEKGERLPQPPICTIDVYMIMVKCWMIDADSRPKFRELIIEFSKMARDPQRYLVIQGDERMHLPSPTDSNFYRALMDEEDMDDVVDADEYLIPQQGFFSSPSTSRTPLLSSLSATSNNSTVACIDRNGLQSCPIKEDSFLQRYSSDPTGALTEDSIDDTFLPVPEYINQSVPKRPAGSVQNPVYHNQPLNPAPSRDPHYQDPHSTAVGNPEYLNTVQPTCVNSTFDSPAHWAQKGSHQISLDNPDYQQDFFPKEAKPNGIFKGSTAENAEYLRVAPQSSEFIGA
row,SMILES,IC50 [µM]
1,"Cc1c[nH]c(C=C2C(=O)Nc3cc(Cl)ccc32)c1CCC(=O)O [Example 219, 3-[2-(6-Chloro-2-oxo-1,2-dihydroindol-3-ylidenemethyl)-4-methyl-1H-pyrrol-3-yl]-propionic acid]",> 100
2,"COc1cccc(-c2ccc3c(c2)NC(=O)/C3=C\c2[nH]c3c(c2CCC(=O)O)CCCC3)c1 [Example 204, 3-{2-[6-(3-Methoxyphenyl)-2-oxo-1,2-dihydro-indol-3-ylidenemethyl]-4,5,6,7-tetrahydro-1H-indol-3-yl}-propionic acid]",> 100
3,"O=C(O)CCc1c(/C=C2\C(=O)Nc3ccc(Cl)cc32)[nH]c2c1CCCC2 [Example 191, 3-[2-(5-Chloro-2-oxo-1,2-dihydroindol-3-ylidenemethyl)-4,5,6,7-tetrahydro-1H-indol-3-yl]-propionic acid]",> 100
4,"O=C1Nc2ccc(C(=O)O)cc2/C1=C/c1ccc2[nH]ccc2c1 [Example 177, 3-(1H-Indol-5-ylmethylene)-2-oxo-2,3-dihydro-1H-indole-5-carboxylic acid]",> 100
5,"Cc1[nH]c2ccccc2c1/C=C1\C(=O)Nc2ccc(C(=O)O)cc21 [Example 182, 3-(2-Methyl-1H-indol-3-ylmethylene)-2-oxo-2,3-dihydro-1H-indole-5-carboxylic acid]",> 100
6,"CN(C)C(=O)CCc1c(/C=C2\C(=O)Nc3ccccc32)[nH]c2c1CCCC2 [Example 197, N,N-Dimethyl-3-[2-(2-oxo-1,2-dihydroindol-3-ylidenemethyl)-4,5,6,7-tetrahydro-1H-indol-3-yl]-propionamide]",> 100
7,"Cc1c(/C=C2\C(=O)Nc3ccc(N)cc32)[nH]c2ccccc12 [Example 180, 5-Amino-3-(3-methyl-1H-indol-2-ylmethylene)-1,3-dihydroindol-2-one]",> 100
8,"NS(=O)(=O)c1ccc2c(c1)/C(=C/c1c[nH]c3ccccc13)C(=O)N2 [Example 172, 3-(1H-Indol-3-ylmethylene)-2-oxo-2,3-dihydro-1H-indole-5-sulfonic acid amide]",> 100
9,"O=C(CCc1c(/C=C2\C(=O)Nc3ccccc32)[nH]c2c1CCCC2)NCCN1CCOCC1 [Example 202, N-(2-Morpholin-4-ylethyl)-3-[2-(2-oxo-1,2-dihydroindol-3-ylidenemethyl)-4,5,6,7-tetrahydro-1H-indol-3-yl]-propionamide]",> 100
10,"Cc1c[nH]c(/C=C2\C(=O)Nc3ccccc32)c1CCC(=O)O [Example 215, 3-[4-Methyl-2-(2-oxo-1,2-dihydroindol-3-ylidenemethyl)-1H-pyrrol-3-yl]-propionic acid]",> 100
11,"O=C1Nc2ccc(N=Cc3cc4ccccc4[nH]3)cc2C1=Cc1cc2ccccc2[nH]1 [Example 171, 3-(1H-indol-2-ylmethylene)-5-[(1H-indol-2-ylmethylene)-amino]-1,3-dihydroindol-2-one]",> 100
12,"CNS(=O)(=O)c1ccc2c(c1)/C(=C/c1cc3ccccc3[nH]1)C(=O)N2 [Example 173, 3-(1H-Indol-2-ylmethylene)-2-oxo-2,3-dihydro-1H-indole-5-sulfonic acid methylamide]",> 100
13,"CNC(=O)CCc1c(/C=C2\C(=O)Nc3ccccc32)[nH]c2c1CCCC2 [Example 201, N-Methyl-3-[2-(2-oxo-1,2-dihydroindol-3-ylidenemethyl)-4,5,6,7-tetrahydro-1H-indol-3-yl]-propionamide]",> 100
14,"CCOC(=O)c1c(C)[nH]c(/C=C2\C(=O)Nc3ccc(Br)cc32)c1CCC(=O)O [Compound 114, 5-(5-Bromo-2-oxo-1,2-dihydroindol-3-ylidenemethyl)-4-(2-carboxyethyl)-2-methyl-1H-pyrrole-3-carboxylic acid ethyl ester]",> 100
15,"COc1ccc2c(c1)NC(=O)/C2=C\c1[nH]cc(C)c1CCC(=O)O [Example 217, 3-[2-(6-Methoxy-2-oxo-1,2-dihydroindol-3-ylidenemethyl)-4-methyl-1H-pyrrol-3-yl]-propionic acid]",> 100

# Other lines, results leading:
row,IC50 [µM],SMILES
1,> 100,"Nc1ccc2c(c1)/C(=C/c1ccc3[nH]ccc3c1)C(=O)N2 [Example 179, 5-Amino-3-(1H-indol-5-ylmethylene)-1,3-dihydro-indol-2-one]"
2,> 100,"O=C1Nc2ccccc2/C1=C/c1[nH]c2c(c1CCC(=O)N1CCOCC1)CCCC2 [Example 200, 3-[3-(3-Morpholin-4-yl-3-oxopropyl)-4,5,6,7-tetrahydro-1H-indol-2-ylmethylene]-1,3-dihydroindol-2-one]"
3,> 100,"NC(=O)CCc1c(/C=C2\C(=O)Nc3ccccc32)[nH]c2c1CCCC2 [Example 199, 3-[2-(2-Oxo-1,2-dihydroindol-3-ylidenemethyl)-4,5,6,7-tetrahydro-1H-indol-3-yl]-propionamide]"
4,> 100,"O=C(O)CCc1ccccc1/C=C1/C(=O)Nc2ccccc21 [Example 214, 3-[2-(2-Oxo-1,2-dihydroindol-3-ylidenemethyl)-phenyl]-propionic acid]"
5,> 100,"Cc1[nH]c2ccccc2c1/C=C1\C(=O)Nc2ccc(N)cc21 [Example 187, 5-Amino-3-(2-methyl-1H-indol-3-ylmethylene)-1,3-dihydroindol-2-one]"
6,> 100,"O=C1Nc2ccc(C(=O)O)cc2/C1=C/c1c[nH]c2ccccc12 [Example 174, 3-(1H-Indol-3-ylmethylene)-2-oxo-2,3-dihydro-1H-indole-5-carboxylic acid]"
7,> 100,"COc1ccc2c(c1)/C(=C/c1[nH]cc(C)c1CCC(=O)O)C(=O)N2 [Example 222, 3-[2-(5-Methoxy-2-oxo-1,2-dihydroindol-3-ylidenemethyl)-4-methyl-1H-pyrrol-3-yl]-propionic acid]"
8,> 12.5,"O=C(O)CCc1c(/C=C2\C(=O)Nc3ncccc32)[nH]c2c1CCCC2 [Example 203, 3-[2-(2-Oxo-1,2-dihydropyrrolo[2,3-b]pyridin-3-ylidenemethyl)-4,5,6,7-tetrahydro-1H-indol-3-yl]-propionic acid]"
9,> 100,"CN(C)CCCc1c(/C=C2\C(=O)Nc3ccccc32)[nH]c2c1CCCC2 [Example 198, 3-[3-(3-Dimethylaminopropyl)-4,5,6,7-tetrahydro-1H-indol-2-ylmethylene]-1,3-dihydroindol-2-one]"
10,> 100,"Cc1cc(CCC(=O)O)c(/C=C2\C(=O)Nc3ccc(Br)cc32)[nH]1 [Compound 116, 3-[2-(5-Bromo-2-oxo-1,2-dihydroindol-3-ylidenemethyl)-5-methyl-1H-pyrrol-3-yl]-propionic acid]"
11,> 100,"O=C(O)CCc1c(/C=C2\C(=O)Nc3cc(Cl)ccc32)[nH]c2c1CCCC2 [Example 195, 3-[2-(6-Chloro-2-oxo-1,2-dihydroindol-3-ylidenemethyl)-4,5,6,7-tetrahydro-1H-indol-3-yl]-propionic acid]"
12,> 100,"CC(C)NS(=O)(=O)c1ccc2c(c1)C(=Cc1[nH]c3c(c1CCC(=O)O)CCCC3)C(=O)N2 [Example 208, 3-[2-(5-Isopropylaminosulfonyl-2-oxo-1,2-dihydroindol-3-ylidenemethyl)-4,5,6,7-tetrahydro-1H-indol-3-yl]-propionic acid]"
13,> 100,"COc1c(C(C)C)cc(/C=C2/C(=O)Nc3ccc(Cl)cc32)cc1C(C)C [Example 2, 5-Chloro-3-(3,5-diisopropyl-4-methoxybenzylidene)-1,3-dihydroindol-2-one]"
14,> 100,"Cc1c[nH]c(/C=C2\C(=O)Nc3ccc(Cl)cc32)c1CCC(=O)O [Example 216, 3-[2-(5-Chloro-2-oxo-1,2-dihydroindol-3-ylidenemethyl)-4-methyl-1H-pyrrol-3-yl]-propionic acid]"
15,45.7,"COc1c(C(C)C)cc(/C=C2/C(=O)Nc3ccccc32)cc1C(C)C [Example 1, 3-(3,5-Diisopropyl-4-methoxybenzylidene)-1,3-dihydroindol-2-one]"
